US7138361B2, “Herbicidal heterocycles” (E. I. du Pont de Nemours and Company, priority 2000, dated 2006)

Legend:
Type in all cases: in vivo
[1] = test system: Surinam grass (Brachiaria decumbens); experiment: Test B postemergence; conditions: 13 to 15 days
How it was run: (§1)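 Pre: seeded pots sprayed, chemical in non-phytotoxic solvent/surfactant mix. Post: plants 2–18 cm, 1–4 leaf, same formulation. Greenhouse 13–15 d; visual % control vs untreated, 0–100 scale.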

[2] = test system: barnyardgrass (Echinochloa crus-galli); experiment: Test B postemergence; conditions: 13 to 15 days
How it was run: as §1

[3] = test system: blackgrass (Alopecurus myosuroides); experiment: Test B postemergence; conditions: 13 to 15 days
How it was run: as §1

[4] = test system: cocklebur (Xanthium strumarium); experiment: Test B postemergence; conditions: 13 to 15 days
How it was run: as §1

corn (Zea mays) [5] = experiment: Test B postemergence; conditions: 13 to 15 days
How it was run: as §1

[6] = test system: crabgrass (Digitaria sanguinalis); experiment: Test B postemergence; conditions: 13 to 15 days
How it was run: as §1

[7] = test system: giant foxtail (Setaria faberii); experiment: Test B postemergence; conditions: 13 to 15 days
How it was run: as §1

[8] = test system: lambsquarters (Chenopodium album); experiment: Test B postemergence; conditions: 13 to 15 days
How it was run: as §1

[9] = test system: morning glory (Ipomoea hederacea); experiment: Test B postemergence; conditions: 13 to 15 days
How it was run: as §1

[10] = test system: pigweed (Amaranthus retroflexus); experiment: Test B postemergence; conditions: 13 to 15 days
How it was run: as §1

[11] = test system: velvetleaf (Abutilon theophrasti); experiment: Test B postemergence; conditions: 13 to 15 days
How it was run: as §1

[12] = test system: wheat (Triticum aestivum); experiment: Test B postemergence; conditions: 13 to 15 days
How it was run: as §1

wild oat (Avena fatua) = experiment: Test B postemergence; conditions: 13 to 15 days
How it was run: as §1

[13] = test system: Surinam grass (Brachiaria decumbens); experiment: Test B preemergence; conditions: scale 0 to 100, 0 no effect, 100 complete control
How it was run: as §1

[14] = test system: barnyardgrass (Echinochloa crus-galli); experiment: Test B preemergence; conditions: scale 0 to 100, 0 no effect, 100 complete control
How it was run: as §1

[15] = test system: cocklebur (Xanthium strumarium); experiment: Test B preemergence; conditions: scale 0 to 100, 0 no effect, 100 complete control
How it was run: as §1

corn (Zea mays) [16] = experiment: Test B preemergence; conditions: scale 0 to 100, 0 no effect, 100 complete control
How it was run: as §1

[17] = test system: crabgrass (Digitaria sanguinalis); experiment: Test B preemergence; conditions: scale 0 to 100, 0 no effect, 100 complete control
How it was run: as §1

[18] = test system: giant foxtail (Setaria faberii); experiment: Test B preemergence; conditions: scale 0 to 100, 0 no effect, 100 complete control
How it was run: as §1

[19] = test system: lambsquarters (Chenopodium album); experiment: Test B preemergence; conditions: scale 0 to 100, 0 no effect, 100 complete control
How it was run: as §1

[20] = test system: morning glory (Ipomoea hederacea); experiment: Test B preemergence; conditions: Preemergence, Rate 500 g/ha; scale 0 to 100, 0 no effect, 100 complete control
How it was run: as §1

[21] = test system: pigweed (Amaranthus retroflexus); experiment: Test B preemergence; conditions: Preemergence, Rate 500 g/ha; scale 0 to 100, 0 no effect, 100 complete control
How it was run: as §1

rice (Oryza saliva) = experiment: Test B preemergence; conditions: Preemergence, Rate 500 g/ha; scale 0 to 100, 0 no effect, 100 complete control
How it was run: as §1

[22] = test system: velvetleaf (Abutilon theophrasti); experiment: Test B preemergence; conditions: Preemergence, Rate 500 g/ha; scale 0 to 100, 0 no effect, 100 complete control
How it was run: as §1

Nightshade = experiment: Test C preemergence; conditions: Rate 250 g/ha, visual evaluation after 12 to 14 days
Sunflower = experiment: Test C preemergence; conditions: Rate 125 g/ha, scale 0 to 100, 0 no effect, 100 complete control
[23] = Rate 125 g/ha, scale 0 (no effect) to 100 (complete control)
[24] = Rate 500 g/ha, scale 0 to 100, 0 is no effect, 100 is complete control

CCC(C)c1ccn(C2SCN(c3cccc(OC(F)(F)F)c3)C2=O)n1 (stereo not shown) [Compound 40]
Plant response rating, Surinam grass [1, 23]: 0 | Plant response rating, Surinam grass [1, 24]: 0 | Plant response rating, Barnyardgrass [2, 23]: 90 | Plant response rating, Barnyardgrass [2, 24]: 100 | Plant response rating, Blackgrass [3, 23]: 0 | Plant response rating, Blackgrass [3, 24]: 0 | Plant response rating, Cocklebur [4, 23]: 30 | Plant response rating, Cocklebur [4, 24]: 50 | Plant response rating, Corn (corn (Zea mays) [5]; [23]): 0 | Plant response rating, Corn (corn (Zea mays) [5]; [24]): 50 | Plant response rating, Crabgrass [6, 23]: 60 | Plant response rating, Crabgrass [6, 24]: 90 | Plant response rating, Foxtail, Giant [7, 23]: 70 | Plant response rating, Foxtail, Giant [7, 24]: 90 | Plant response rating, Lambsquarters [8, 23]: 70 | Plant response rating, Lambsquarters [8, 24]: 90 | Plant response rating, Morningglory [9, 23]: 10 | Plant response rating, Morningglory [9, 24]: 20 | Plant response rating, Pigweed [10, 23]: 40 | Plant response rating, Pigweed [10, 24]: 80 | Plant response rating, Velvetleaf [11, 23]: 0 | Plant response rating, Velvetleaf [11, 24]: 0 | Plant response rating, Wheat [12, 23]: 0 | Plant response rating, Wheat [12, 24]: 0 | Plant response rating, Wild Oat (wild oat (Avena fatua); [23]): 0 | Plant response rating, Wild Oat (wild oat (Avena fatua); [24]): 0 | Plant response rating, Surinam grass ([13]; Preemergence, Rate 500 g/ha): 90 | Plant response rating, Surinam grass ([13]; preemergence, Rate 125 g/ha): 60 | Plant response rating, Barnyardgrass ([14]; Preemergence, Rate 500 g/ha): 100 | Plant response rating, Barnyardgrass ([14]; preemergence, Rate 125 g/ha): 100 | Plant response rating, Cocklebur ([15]; Preemergence, Rate 500 g/ha): 0 | Plant response rating, Cocklebur ([15]; preemergence, Rate 125 g/ha): 0 | Plant response rating, Corn (corn (Zea mays) [16]; Preemergence, Rate 500 g/ha): 60 | Plant response rating, Corn (corn (Zea mays) [16]; preemergence, Rate 125 g/ha): 0 | Plant response rating, Crabgrass ([17]; Preemergence, Rate 500 g/ha): 100 | Plant response rating, Crabgrass ([17]; preemergence, Rate 125 g/ha): 100 | Plant response rating, Foxtail, Giant ([18]; Preemergence, Rate 500 g/ha): 100 | Plant response rating, Foxtail, Giant ([18]; preemergence, Rate 125 g/ha): 70 | Plant response rating, Lambsquarters ([19]; Preemergence, Rate 500 g/ha): 100 | Plant response rating, Lambsquarters ([19]; preemergence, Rate 125 g/ha): 100 | Plant response rating, Morningglory [20]: 60 | Plant response rating, Pigweed [21]: 100 | Plant response rating, Rice (rice (Oryza saliva)): 100 | Plant response rating, Velvetleaf [22]: 0 | Plant response rating (0 to 100), Nightshade (Nightshade): 40 | Plant response rating, Sunflower (Sunflower): 0

CC(C)c1ccn(C2SCN(c3cccc(OC(F)F)c3)C2=O)n1 (stereo not shown) [Compound 44]
Plant response rating, Surinam grass [1, 23]: 0 | Plant response rating, Surinam grass [1, 24]: 0 | Plant response rating, Barnyardgrass [2, 23]: 40 | Plant response rating, Barnyardgrass [2, 24]: 100 | Plant response rating, Blackgrass [3, 23]: 0 | Plant response rating, Blackgrass [3, 24]: 0 | Plant response rating, Cocklebur [4, 23]: 20 | Plant response rating, Cocklebur [4, 24]: 70 | Plant response rating, Corn (corn (Zea mays) [5]; [23]): 0 | Plant response rating, Corn (corn (Zea mays) [5]; [24]): 20 | Plant response rating, Crabgrass [6, 23]: 0 | Plant response rating, Crabgrass [6, 24]: 40 | Plant response rating, Foxtail, Giant [7, 23]: 0 | Plant response rating, Foxtail, Giant [7, 24]: 60 | Plant response rating, Lambsquarters [8, 23]: 20 | Plant response rating, Lambsquarters [8, 24]: 60 | Plant response rating, Morningglory [9, 23]: 0 | Plant response rating, Morningglory [9, 24]: 0 | Plant response rating, Pigweed [10, 23]: 0 | Plant response rating, Pigweed [10, 24]: 0 | Plant response rating, Velvetleaf [11, 23]: 0 | Plant response rating, Velvetleaf [11, 24]: 0 | Plant response rating, Wheat [12, 23]: 0 | Plant response rating, Wheat [12, 24]: 0 | Plant response rating, Wild Oat (wild oat (Avena fatua); [23]): 0 | Plant response rating, Wild Oat (wild oat (Avena fatua); [24]): 0 | Plant response rating, Surinam grass ([13]; Preemergence, Rate 500 g/ha): 100 | Plant response rating, Surinam grass ([13]; preemergence, Rate 125 g/ha): 0 | Plant response rating, Barnyardgrass ([14]; Preemergence, Rate 500 g/ha): 100 | Plant response rating, Barnyardgrass ([14]; preemergence, Rate 125 g/ha): 80 | Plant response rating, Cocklebur ([15]; preemergence, Rate 125 g/ha): 0 | Plant response rating, Corn (corn (Zea mays) [16]; Preemergence, Rate 500 g/ha): 20 | Plant response rating, Corn (corn (Zea mays) [16]; preemergence, Rate 125 g/ha): 0 | Plant response rating, Crabgrass ([17]; Preemergence, Rate 500 g/ha): 100 | Plant response rating, Crabgrass ([17]; preemergence, Rate 125 g/ha): 0 | Plant response rating, Foxtail, Giant ([18]; Preemergence, Rate 500 g/ha): 100 | Plant response rating, Foxtail, Giant ([18]; preemergence, Rate 125 g/ha): 10 | Plant response rating, Lambsquarters ([19]; Preemergence, Rate 500 g/ha): 100 | Plant response rating, Lambsquarters ([19]; preemergence, Rate 125 g/ha): 100 | Plant response rating, Morningglory [20]: 0 | Plant response rating, Pigweed [21]: 100 | Plant response rating, Rice (rice (Oryza saliva)): 100 | Plant response rating, Velvetleaf [22]: 0 | Plant response rating (0 to 100), Nightshade (Nightshade): 0 | Plant response rating, Sunflower (Sunflower): 0
